Source: ChEMBL document CHEMBL4004781, “Synthesis, biological evaluation, docking study and ulcerogenicity profiling of some novel quinoline-2-carboxamides as dual COXs/LOX inhibitors endowed with anti-inflammatory activity” (Eur J Med Chem, 2017)

Tests used:
[1] = test system: Rattus norvegicus; test: Ulcerogenic effect in albino rat assessed as ulcer index at 50 umol/kg, po qd administered for 3 days measured 1 hr post last dose; assay type: toxicity, organism-based; conditions: in vivo
[2] = test system: Rattus norvegicus; test: Ulcerogenic effect in albino rat assessed as maceration of gastric mucosa at 50 umol/kg, po qd administered for 3 days measured 1 hr post last dose by hematoxylin/eosin staining-based light microscopic method; assay type: toxicity, organism-based; conditions: in vivo
[3] = test system: Rattus norvegicus; test: Ulcerogenic effect in albino rat assessed as congestion of blood vessels at 50 umol/kg, po qd administered for 3 days measured 1 hr post last dose by hematoxylin/eosin staining-based light microscopic method; assay type: toxicity, organism-based; conditions: in vivo
[4] = test system: Rattus norvegicus; test: Ulcerogenic effect in albino rat assessed as lymphocytic infiltration at 50 umol/kg, po qd administered for 3 days measured 1 hr post last dose by hematoxylin/eosin staining-based light microscopic method; assay type: toxicity, organism-based; conditions: in vivo
[5] = test system: Rattus norvegicus; test: Ulcerogenic effect in albino rat assessed as submucosal edema at 50 umol/kg, po qd administered for 3 days measured 1 hr post last dose by hematoxylin/eosin staining-based light microscopic method; assay type: toxicity, organism-based; conditions: in vivo
[6] = test system: Rattus norvegicus; test: Ulcerogenic effect in albino rat assessed as exfoliation of superficial epithelial cells at 50 umol/kg, po qd administered for 3 days measured 1 hr post last dose by hematoxylin/eosin staining-based light microscopic method; assay type: toxicity, organism-based; conditions: in vivo
[7] = test system: Rattus norvegicus; test: Ulcerogenic effect in albino rat assessed as induction of necrosis in gastric mucosal cells at 50 umol/kg, po qd administered for 3 days measured 1 hr post last dose by hematoxylin/eosin staining-based light microscopic method; assay type: toxicity, organism-based; conditions: in vivo
[8] = test system: Rattus norvegicus; test: Ulcerogenic effect in albino rat assessed as complete shedding of surface mucous cells leaving underlying gastric pit walls and openings with honeycomb shape at 50 umol/kg, po qd administered for 3 days measured 1 hr post last dose by scanning electron microscopic method; assay type: toxicity, organism-based; conditions: in vivo
[9] = target: T1, Prostaglandin G/H synthase 1 (Ovis aries, UniProt P05979); test: Inhibition of ovine COX1 using arachidonic acid as substrate assessed as decrease in PGF2 production preincubated for 15 mins followed by substrate addition measured after 2 mins by enzyme immunoassay
T1 sequence (P05979 whole entry): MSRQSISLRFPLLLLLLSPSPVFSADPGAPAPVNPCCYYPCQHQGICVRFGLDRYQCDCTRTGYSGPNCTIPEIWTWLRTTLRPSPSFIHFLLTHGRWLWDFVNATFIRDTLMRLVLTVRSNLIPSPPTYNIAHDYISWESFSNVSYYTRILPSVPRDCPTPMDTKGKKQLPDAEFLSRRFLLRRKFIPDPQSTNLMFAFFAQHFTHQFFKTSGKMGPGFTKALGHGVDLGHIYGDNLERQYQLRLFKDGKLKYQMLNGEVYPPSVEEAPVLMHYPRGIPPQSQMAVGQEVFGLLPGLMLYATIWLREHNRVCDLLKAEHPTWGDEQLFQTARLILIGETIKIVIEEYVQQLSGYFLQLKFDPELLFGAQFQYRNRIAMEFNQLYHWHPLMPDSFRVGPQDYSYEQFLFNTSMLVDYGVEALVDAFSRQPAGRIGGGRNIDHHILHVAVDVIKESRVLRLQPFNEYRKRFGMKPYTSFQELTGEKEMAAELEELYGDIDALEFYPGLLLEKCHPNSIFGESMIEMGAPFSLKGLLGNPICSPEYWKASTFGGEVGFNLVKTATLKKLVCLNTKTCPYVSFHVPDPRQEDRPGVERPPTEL

[10] = target: T2, Prostaglandin G/H synthase 2 (Homo sapiens, UniProt P35354); test: Inhibition of recombinant human COX2 using arachidonic acid as substrate assessed as decrease in PGF2 production preincubated for 15 mins followed by substrate addition measured after 2 mins by enzyme immunoassay
T2 sequence (P35354 whole entry): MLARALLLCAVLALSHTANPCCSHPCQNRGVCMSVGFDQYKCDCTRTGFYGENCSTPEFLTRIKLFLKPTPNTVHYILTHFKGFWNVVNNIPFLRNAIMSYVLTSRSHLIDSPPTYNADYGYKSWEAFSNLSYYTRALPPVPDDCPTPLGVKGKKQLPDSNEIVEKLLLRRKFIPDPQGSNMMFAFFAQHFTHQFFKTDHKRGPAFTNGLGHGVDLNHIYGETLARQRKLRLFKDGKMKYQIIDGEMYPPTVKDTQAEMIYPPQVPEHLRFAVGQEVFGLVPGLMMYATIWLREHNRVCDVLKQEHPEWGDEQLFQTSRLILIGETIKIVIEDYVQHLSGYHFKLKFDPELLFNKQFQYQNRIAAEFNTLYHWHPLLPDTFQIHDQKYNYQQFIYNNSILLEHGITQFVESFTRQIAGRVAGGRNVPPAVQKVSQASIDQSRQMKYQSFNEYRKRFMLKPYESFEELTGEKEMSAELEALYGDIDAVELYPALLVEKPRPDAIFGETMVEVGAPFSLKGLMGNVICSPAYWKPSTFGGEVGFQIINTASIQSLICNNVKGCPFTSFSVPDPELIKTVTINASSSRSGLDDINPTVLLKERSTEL

[11] = Selectivity ratio of IC50 for ovine COX1 to IC50 for recombinant human COX2
[12] = test system: Rattus norvegicus; test: Antiinflammatory activity in albino rat assessed as inhibition of carrageenan-induced paw edema at 28 umol/kg, ip administered 1 hr post carrageenan challenge measured at 1 hr post compound dosing relative to control; assay type: functional
[13] = test system: Rattus norvegicus; test: Antiinflammatory activity in albino rat assessed as inhibition of carrageenan-induced paw edema at 28 umol/kg, ip administered 1 hr post carrageenan challenge measured at 3 hrs post compound dosing relative to control; assay type: functional
[14] = test system: Rattus norvegicus; test: Antiinflammatory activity in albino rat assessed as inhibition of carrageenan-induced paw edema at 28 umol/kg, ip administered 1 hr post carrageenan challenge measured at 5 hrs post compound dosing relative to control; assay type: functional
[15] = Inhibition of soybean 15-LOX assessed as decrease in leukotriene formation by enzyme immunoassay; parameters: species or system Glycine max
[16] = test system: Rattus norvegicus; test: Ulcerogenic effect in albino rat assessed as effect on architecture of gastric mucosa at 50 umol/kg, po qd administered for 3 days measured 1 hr post last dose by hematoxylin/eosin staining-based light microscopic method; assay type: toxicity, organism-based; conditions: in vivo
[17] = test system: Rattus norvegicus; test: Ulcerogenic effect in albino rat assessed as effect on architecture of gastric mucosal surface at 50 umol/kg, po qd administered for 3 days measured 1 hr post last dose by scanning electron microscopic method; assay type: toxicity, organism-based; conditions: in vivo
[18] = test system: Rattus norvegicus; test: Ulcerogenic effect in albino rat assessed as loss of demarcation between surface mucus cells at 50 umol/kg, po qd administered for 3 days measured 1 hr post last dose by scanning electron microscopic method; assay type: toxicity, organism-based; conditions: in vivo

SMILES	UI [1]	Activity [2]	Activity [3]	Activity [4]	Activity [5]	Activity [6]	Activity [7]	Activity [8]	IC50 [9] [µM]	IC50 [10] [nM]	Ratio IC50 [11]	inhibition in vivo at 28 µmol/kg [12] [%]	inhibition in vivo at 28 µmol/kg [13] [%]	inhibition in vivo at 28 µmol/kg [14] [%]	IC50 [15] [µM]	Activity [16]	Activity [17]	Activity [18]
COc1ccc2c(c1)c(CC(=O)O)c(C)n2C(=O)c1ccc(Cl)cc1 [INDOMETHACIN]	17.23	Toxic	Toxic	Toxic	Toxic	Toxic	Toxic	Toxic										
Cc1c(C(=O)NCCc2ccc(N3CCCC3C)cc2)nc2ccc(Cl)cc2c1O (stereo unspecified)									9.8	1910	5.1	41	48	49.7				
Cc1c(C(=O)N2CCCCC2)nc2ccc(Cl)cc2c1O									12.4	3140	3.94	30.1	35.4	36.8	10.4			
Cc1c(C(=O)NC(CO)Cc2ccccc2)nc2ccc(Cl)cc2c1O (stereo unspecified)									11.4	2780	4.1	34.2	39.5	41.3				
Cc1c(C(=O)NCCc2ccccc2)nc2ccc(Cl)cc2c1O									11.4	2540	4.48	35.8	40.9	43.4	9.87			
Cc1c(C(=O)NCc2nc3ccccc3[nH]2)nc2ccc(Cl)cc2c1O	2.66		Toxic						7.9	1210	6.52	45.2	50.1	59.4	6.18	Non-Toxic	Non-Toxic	Toxic
Cc1c(C(=O)NCCc2ccc(N(C)C)cc2)nc2ccc(Cl)cc2c1O									8.3	1670	4.97	39.1	46.9	48.6				
Cc1c(C(=O)NCCc2ccc(N3CCCCC3)cc2)nc2ccc(Cl)cc2c1O									10.4	2110	4.92	39.8	46.9	48.2	7.32			
Cc1c(C(=O)N2CCN(c3ccccc3)CC2)nc2ccc(Cl)cc2c1O	2.5			Toxic					8.6	1130	7.61	49.5	61	65	5.91	Non-Toxic	Non-Toxic	Toxic
